Data reported in ChEMBL document CHEMBL4402595, “Discovery of Orally Bioavailable Chromone Derivatives as Potent and Selective BRD4 Inhibitors: Scaffold Hopping, Optimization, and Pharmacological Evaluation” (J Med Chem, 2020).

Tests used:
[1] = target: T1, Bromodomain-containing protein 4 (Homo sapiens, UniProt O60885); assay: Inhibition of BRD4 in poly(I:C)-stimulated human SAECs TLR3-inducible IL-6 gene expression at 10 uM pre-incubated for 24 hrs before poly(I:C) stimulation for 4 hrs by qRT-PCR analysis relative to control
[2] = target: T1, Bromodomain-containing protein 4; assay: Inhibition of BRD4 in poly(I:C)-stimulated human SAECs TLR3-inducible CIG5 gene expression at 10 uM pre-incubated for 24 hrs before poly(I:C) stimulation for 4 hrs by qRT-PCR analysis relative to control
[3] = target: T1, Bromodomain-containing protein 4; assay: Inhibition of BRD4 in poly(I:C)-stimulated human SAECs TLR3-inducible CIG5 gene expression pre-incubated for 24 hrs before poly(I:C) stimulation for 4 hrs by qRT-PCR analysis
[4] = target: T1, Bromodomain-containing protein 4; assay: Inhibition of BRD4 in poly(I:C)-stimulated human SAECs TLR3-inducible IL-6 gene expression pre-incubated for 24 hrs before poly(I:C) stimulation for 4 hrs by qRT-PCR analysis
[5] = target: T1, Bromodomain-containing protein 4; assay: Binding affinity to recombinant BRD4 BD2 (unknown origin) incubated for 1 hr by TR-FRET assay
[6] = target: Bromodomain-containing protein 2 (Homo sapiens, UniProt P25440); assay: Binding affinity to recombinant BRD2 BD2 (unknown origin) incubated for 1 hr by TR-FRET assay
Sequence of Bromodomain-containing protein 2 (P25440 whole entry): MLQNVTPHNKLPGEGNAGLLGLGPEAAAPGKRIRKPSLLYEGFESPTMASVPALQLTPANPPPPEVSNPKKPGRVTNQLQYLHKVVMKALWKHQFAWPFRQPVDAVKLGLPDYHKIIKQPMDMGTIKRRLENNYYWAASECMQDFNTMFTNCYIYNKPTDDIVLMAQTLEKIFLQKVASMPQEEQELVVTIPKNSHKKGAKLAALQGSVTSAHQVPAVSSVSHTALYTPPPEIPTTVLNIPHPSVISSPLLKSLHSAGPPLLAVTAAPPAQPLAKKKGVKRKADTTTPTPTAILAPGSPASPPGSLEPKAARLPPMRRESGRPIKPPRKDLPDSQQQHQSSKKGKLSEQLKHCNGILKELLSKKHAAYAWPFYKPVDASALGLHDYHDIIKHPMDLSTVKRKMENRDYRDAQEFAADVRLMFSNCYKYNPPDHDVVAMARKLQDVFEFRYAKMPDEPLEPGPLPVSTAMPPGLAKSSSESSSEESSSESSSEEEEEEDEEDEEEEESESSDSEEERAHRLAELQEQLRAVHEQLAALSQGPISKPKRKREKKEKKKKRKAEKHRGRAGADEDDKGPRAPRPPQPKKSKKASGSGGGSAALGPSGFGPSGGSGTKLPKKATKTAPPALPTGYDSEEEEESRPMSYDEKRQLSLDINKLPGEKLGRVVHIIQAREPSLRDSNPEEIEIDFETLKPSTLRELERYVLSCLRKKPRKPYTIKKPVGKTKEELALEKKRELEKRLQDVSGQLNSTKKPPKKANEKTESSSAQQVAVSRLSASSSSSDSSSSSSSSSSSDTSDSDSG

SMILES	inhibition [1] [%]	inhibition [2] [%]	further results
COc1cc(OC)c2c(=O)[nH]c(-c3ccc(C(F)(F)F)c(C)c3)nc2c1	45		
Cc1cc(-c2nc3cc(Br)ccc3c(=O)[nH]2)cc(C)c1O	15	51	
Cc1cc(-c2nc3ccc(F)cc3c(=O)[nH]2)cc(C)c1O	62	-4.5	
Cc1cc(-c2nc3ccccc3c(=O)[nH]2)cc(C)c1O	81		
COc1cc(OC)c2c(=O)cc(-c3cc(C)c(OC[C@H](O)CN4CCCC4)c(C)c3)oc2c1	99	92	IC50 [3]: 1.48 µM; IC50 [4]: 0.97 µM
COc1cc(OC)c2c(=O)[nH]c(-c3cc(C)c(OC[C@@H](O)CN4CCN(C)CC4)c(C)c3)nc2c1	80	83	IC50 [3]: 2.6 µM; IC50 [4]: 3.5 µM
COc1cc(-c2nc3ccccc3c(=O)[nH]2)cc(OC)c1O	59	61	
COc1cc(OC)c2c(=O)[nH]c(-c3ccc(O)cc3Cl)nc2c1	66	42	
COc1cc(OC)c2c(=O)[nH]c(-c3cc(C)c(O)c(C)c3)nc2c1	75		
Cc1cc(-c2nc3cccc(F)c3c(=O)[nH]2)cc(C)c1O	62	33	
COc1cc(OC)c2c(=O)cc(-c3cc(C)c(OC[C@H](O)CN4CCC(F)(F)CC4)c(C)c3)oc2c1	88	63	
COc1cc(OC)c2c(=O)cc(-c3cc(C)c(OC[C@@H](O)CN4CCCCC4)c(C)c3)oc2c1	100	100	IC50 [5]: 0.093 µM; IC50 [3]: 0.58 µM; IC50 [6]: 1.2 µM; IC50 [4]: 0.54 µM
Cc1cc(-c2nc3cc([N+](=O)[O-])ccc3c(=O)n2C)cc(C)c1O	86		
COc1cc(OC)c2c(=O)[nH]c(-c3cc(C)c(OC[C@@H]4CO4)c(C)c3)nc2c1	83	87	
Cc1cc(-c2nc3ccc(Cl)cc3c(=O)[nH]2)cc(C)c1O	53	37	
Cc1cc(-c2nc3cc(-c4ccn(C)n4)ccc3c(=O)[nH]2)cc(C)c1O		71	
O=c1[nH]c(-c2cc(F)c(O)cc2F)nc2ccccc12	59	2.2	
COc1cc(OC)c2c(=O)cc(-c3cc(C)c(OC[C@@H](F)CN4CCCCC4)c(C)c3)oc2c1	90	85	
COc1cc(OC)c2c(=O)cc(-c3cc(C)c(OC[C@H](O)CN(C)C)c(C)c3)oc2c1	82		
C=CCOc1c(C)cc(-c2cc(=O)c3c(OC)cc(OC)cc3o2)cc1C		83	
Cc1cc(-c2nc3ccc(Br)cc3c(=O)[nH]2)cc(C)c1O	25	43	
COc1cc(OC)c2c(=O)cc(-c3cc(C)c(OCCO)c(C)c3)oc2c1	98	97	IC50 [3]: 2.6 µM; IC50 [4]: 2.8 µM
Cc1cc(-c2nc3ccccc3c(=O)n2C)cc(C)c1O	55	18	
COc1cc(OC)c2c(=O)[nH]c(-c3ccc(C(F)(F)F)cc3)nc2c1		45	
COc1cc(OC)c2c(=O)cc(-c3cc(C)c(OC[C@H](O)CN4CCOCC4)c(C)c3)oc2c1	82	42	
COc1cc(OC)c2c(=O)[nH]c(-c3ccc(O)cc3)nc2c1	63	81	
COc1cc(OC)c2c(=O)[nH]c(-c3cc(C)c(OCCO)c(C)c3)nc2c1	65	84	
